# Measurements reported in US20100035754A1, “AGENT FOR IMPROVING ALKALI RESISTANCE OF PLANT AND METHOD FOR IMPROVING ALKALI RESISTANCE OF PLANT” (COSMO OIL CO., LTD, priority 2007, published 2010).
# Legend:
# [1] = tested on: plants grown in alkaline soil; settings: spraying, Non-Patent Document 1; cited from earlier work
# [2] = tested on: Komatsuna; test: Komatsuna pot test: foliage application of agent, then sub-irrigation with pH 9.0 sodium carbonate/sodium hydrogencarbonate buffer, fresh weight of shoots; type: in vivo, Komatsuna (species: Calvita); settings: 0.05 wt. % aqueous solution of agent on stems and leaves, 5 mL/pot, pH 9.0 buffer sub-irrigation three days after treatment, measured one week after irrigation
# Protocol: Each of the pots (1/5000 a) was filled with andosols soil, and Komatsuna (species: Calvita, product of Nohara Seed Co., Ltd.) was sown in the soil. At the 3 leaf stage, five uniform seedlings per pot were selected by cutting. An aqueous solution (0.05 wt. %) of each agent having a composition shown in Table 1 was applied to the stems and leaves of the plants in each pot (5 mL/pot). Sulfur powder (“sulfur, powder,” product of Wako Pure Chemical Industries, Ltd.) was separately used in an amount given in Table 1 for soil treatment. The same sulfur powder was employed in the following Examples. Three days after the treatment, sub-irrigation was performed with a 0.5-mol/L aqueous sodium carbonate/sodium hydrogencarbonate buffer (pH: 9.0). One week after irrigation, the fresh weight of shoots of the plants was measured so as to check the growth conditions.
# In Comparative Example 1, water was employed instead of an aqueous solution of each agent.
# [3] = tested on: Komatsuna; test: Komatsuna grown in alkaline soil, foliage spray of agent every 2 weeks, plant height and dry weight of shoots; type: in vivo, Komatsuna (Calvita); settings: pH of soil 8.8, foliage spray 5 mL/pot every 2 weeks, 27 days after sowing, averaged
# Protocol: Calcium carbonate was added to field soil so as to adjust the Ca content to 5 mass %, and an appropriate amount of aqueous sodium carbonate solution was added thereto, followed by sufficiently mixing, to thereby provide alkaline soil (pH: 8.8). A chemical fertilizer (base fertilizer) was added to the alkaline soil in an amount of 10 kg/10 a (as reduced to N). Each of the pots (1/5000 a) was filled with the above soil, and 10 seeds of Komatsuna (Calvita, product of Nohara Seed Co., Ltd.) were sown in the soil, followed by cultivation in a greenhouse. Ten days after, five uniform seedlings per pot were selected by cutting. After cutting, an aqueous solution (0.05 mass %) of each agent having a composition shown in Table 2 was sprayed every 2 weeks to the stems and leaves of the plants in each pot (5 mL/pot), and the pot was controlled under ordinary conditions. Twenty-seven days after sowing, the soil was washed out with water, whereby the plants were harvested. The plant height of each plant was measured. Subsequently, the plants were dried at 80° C. for 24 hours by a drier, and the dry weight of shoots of each plant was measured.
# The test procedure of Example 7 was repeated, except that the amounts of ingredients were changed. […]
# The test procedure of Example 7 was repeated, except that the agent was changed. […]
# [4] = tested on: cotton; test: Cotton grown in alkaline soil, foliage spray of agent every 2 weeks, plant height and dry weight of shoots; type: in vivo, cotton (species: Dwarf cotton); settings: pH of soil 8.8, foliage spray 5 mL/pot every 2 weeks, sown Sep. 22, harvested November 7
# Protocol: Calcium carbonate was added to field soil so as to adjust the Ca content to 5 mass %, and an appropriate amount of aqueous sodium carbonate solution was added thereto, followed by sufficiently mixing, to thereby provide alkaline soil (pH: 8.8). A chemical fertilizer (base fertilizer) was added to the alkaline soil in an amount of 10 kg/10 a (as reduced to N). Each of the pots (1/5000 a) was filled with the above soil, and 6 seeds of cotton (species: Dwarf cotton, product of Sakata Seed Co.) were sown in the soil on Sep. 22, followed by cultivation in a greenhouse. Ten days after, three uniform seedlings per pot were selected by cutting. After cutting, an aqueous solution (0.05 mass %) of each agent having a composition shown in Table 4 was sprayed every 2 weeks to the stems and leaves of the plants in each pot (5 mL/pot), and the pot was controlled under ordinary conditions. On the day of November 7, the soil was washed out with water, whereby the plants were harvested, and the plant height of each plant was measured. Subsequently, the plants were dried at 80° C. for 24 hours by a drier, and the dry weight of shoots of each plant was measured.
# The test procedure of Example 13 was repeated, except that sulfur was further applied to soil treatment one day after foliage treatment with other agent ingredients.
# The test procedure of Example 13 was repeated, except that the agent was changed. […]
# [5] = tested on: corn; test: Corn grown in alkaline soil, foliage spray of agent every 2 weeks, plant height and dry weight of shoots; type: in vivo, corn (species: Amai bantam 90); settings: pH of soil 8.7, foliage spray 5 mL/pot every 2 weeks, sown November 15, harvested December 26
# Protocol: Calcium carbonate was added to field soil so as to adjust the Ca content to 5 mass %, and an appropriate amount of aqueous sodium carbonate solution was added thereto, followed by sufficiently mixing, to thereby provide alkaline soil (pH: 8.7). A chemical fertilizer (base fertilizer) was added to the alkaline soil in an amount of 10 kg/10 a (as reduced to N). Each of the pots (1/5000 a) was filled with the above soil, and 4 seeds of corn (species: Amai bantam 90, product of Tohoku Seed Co., Ltd.) were sown in the soil on November 15, followed by cultivation in a greenhouse. Twelve days after, two uniform seedlings per pot were selected by cutting. After cutting, an aqueous solution (0.05 mass %) of each agent having a composition shown in Table 6 was sprayed every 2 weeks to the stems and leaves of the plants in each pot (5 mL/pot), and the pot was controlled under ordinary conditions. On the day of December 26, the soil was washed out with water, whereby the plants were harvested, and the plant height of each plant was measured. Subsequently, the plants were dried at 80° C. for 24 hours by a drier, and the dry weight of shoots of each plant was measured.
# The test procedure of Example 17 was repeated, except that application of sulfur to soil treatment and application of other agent ingredients to foliage treatment were simultaneously performed. […]
# [6] = tested on: sunflower; test: Sunflower grown in alkaline soil, foliage spray of agent every 2 weeks, plant height and dry weight of shoots; type: in vivo, sunflower (Pachino-gold); settings: pH of soil 8.8, foliage spray 5 mL/pot every 2 weeks, sown June 13, measured August 10
# Protocol: Culture soil (sowing mold, product of Takii Seed Co., Ltd.; 440 mg-N/L, 390 mg-P/L, and 410 mg-K/L) and plug soil for turf were mixed at 1:1, and calcium carbonate was added to the soil mixture to a Ca concentration of 5 mass %. An appropriate amount of aqueous sodium carbonate solution was added thereto, followed by sufficiently mixing, to thereby provide alkaline soil (pH: 8.8). Each of the No. 6-pots (surface area: 177 cm^2) was filled with the above-prepared soil, and on the day of June 13, 4 seeds of sunflower (Pachino-gold, product of Takii Seed Co., Ltd.) were sown in the soil, followed by cultivation in a greenhouse. Fourteen days after, two uniform seedlings per pot were selected by cutting. After cutting, an aqueous solution (0.05 mass %) of each agent having a composition shown in Table 7 was sprayed every 2 weeks to the stems and leaves of the plants in each pot (5 mL/pot), and the pot was controlled under ordinary conditions. On the day of August 10, the plant height and the dry weight of shoots of each plant were measured.
# The test procedure of Example 19 was repeated, except that application of sulfur to soil treatment and application of other agent ingredients to foliage treatment were simultaneously performed.
# The test procedure of Example 19 was repeated, except that the agent was changed.
# [7] = tested on: tomato; test: Tomato seedlings transplanted to alkaline soil, foliage spray of agent every 2 weeks, dry weight of shoots; type: in vivo, tomato (Kyoryoku Beijyu); settings: pH of soil 8.8, foliage spray 5 mL/pot every 2 weeks, transplanted June 6, harvested July 6
# Protocol: Calcium carbonate was added to field soil so as to adjust the Ca content to 5 mass %, and an appropriate amount of aqueous sodium carbonate solution was added thereto, followed by sufficiently mixing, to thereby provide alkaline soil (pH: 8.8). A chemical fertilizer (base fertilizer) was added to the alkaline soil in an amount of 10 kg/10 a (as reduced to N). Each of the pots (1/5000 a) was filled with the above soil, and on the day of June 6, tomato seedlings (Kyoryoku Beijyu, product of Nohara Seed Co., Ltd.) were transplanted to the soil, followed by cultivation in a greenhouse. After transplanting, an aqueous solution (0.05 mass %) of each agent having a composition shown in Table 8 was sprayed every 2 weeks to the stems and leaves of the plants in each pot (5 mL/pot), and the pot was controlled under ordinary conditions. On the day of July 6, the soil was washed out with water, whereby the plants were harvested. Subsequently, the plants were dried at 80° C. for 24 hours by a drier, and the dry weight of shoots of each plant was measured.
# The test procedure of Example 21 was repeated, except that application of sulfur to soil treatment and application of other agent ingredients to foliage treatment were simultaneously performed.
# The test procedure of Example 21 was repeated, except that the agent was changed.
# [8] = tested on: Komatsuna; test: Komatsuna grown in alkaline soil, agent applied to the soil surface every 2 weeks (soil treatment), plant height and dry weight of shoots; type: in vivo, Komatsuna (Calvita); settings: pH of soil 8.8, applied to surface of the soil 10 mL/pot every 2 weeks, 27 days after sowing
# Protocol: Calcium carbonate was added to field soil so as to adjust the Ca content to 5 mass %, and an appropriate amount of aqueous sodium carbonate solution was added thereto, followed by sufficiently mixing, to thereby provide alkaline soil (pH: 8.8). A chemical fertilizer (base fertilizer) was added to the alkaline soil in an amount of 10 kg/10 a (as reduced to N) Each of the pots (1/5000 a) was filled with the above soil, and 10 seeds of Komatsuna (Calvita, product of Nohara Seed Co., Ltd.) were sown in the soil, followed by cultivation in a greenhouse. Ten days after, five uniform seedlings per pot were selected by cutting. After cutting, an aqueous solution (0.05 mass %) of each agent having a composition shown in Table 9 was applied every 2 weeks to the surface of the soil in each pot (10 mL/pot), and the pot was controlled under ordinary conditions. Twenty-seven days after sowing, the soil was washed out with water, whereby the plants were harvested, and the plant height of each plant was measured. Subsequently, the plants were dried at 80° C. for 24 hours by a drier, and the dry weight of shoots of each plant was measured.
# The test procedure of Example 23 was repeated, except that application of sulfur to soil treatment and application of other agent ingredients to foliage treatment were simultaneously performed.
# The test procedure of Example 23 was repeated, except that the agent was changed.
smiles,measurement,setting,value
NCC(=O)CCC(=O)O [5-aminolevulinic acid],Foliage yield of plants,[1],prevent decrease in foliage yield
"Cl.NCC(=O)CCC(=O)O [compound 2, 5-Aminolevulinic acid hydrochloride]","Fresh weight of shoots (%)(5 plants in total, relative to treatment period)",[2],55%
"Cl.NCC(=O)CCC(=O)O [compound 5, 5-Aminolevulinic acid hydrochloride]",Dry weight of shoots,[3],2.2 g
same,Plant height (cm),[3],11.3 cm
"O=C([O-])CN(CCN(CC(=O)[O-])CC(=O)[O-])CCN(CC(=O)[O-])CC(=O)[O-].[Fe+3].[NH4+].[NH4+] [compound 6, Ammonium diethylenetriaminepentaacetatoferrate]",Dry weight of shoots,[3],2.0 g
same,Plant height (cm),[3],9.8 cm
"Cl.NCC(=O)CCC(=O)O [compound 10, 5-Aminolevulinic acid hydrochloride]",Dry weight of shoots,[4],0.9 g
same,Plant height (cm),[4],13.1 cm
"Cl.NCC(=O)CCC(=O)O [compound 14, 5-Aminolevulinic acid hydrochloride]",Dry weight of shoots,[5],0.30 g
same,Plant height (cm),[5],23.2 cm
"Cl.NCC(=O)CCC(=O)O [compound 17, 5-Aminolevulinic acid hydrochloride]",Dry weight of shoots,[6],6.8 g
same,Plant height (cm),[6],36 cm
"Cl.NCC(=O)CCC(=O)O [compound 20, 5-Aminolevulinic acid hydrochloride]",Dry weight of shoots,[7],4.5 g
"Cl.NCC(=O)CCC(=O)O [compound 23, 5-Aminolevulinic acid hydrochloride]",Dry weight of shoots,[8],2.1 g
same,Plant height (cm),[8],10.3 cm
"O=C([O-])CN(CCN(CC(=O)[O-])CC(=O)[O-])CCN(CC(=O)[O-])CC(=O)[O-].[Fe+3].[NH4+].[NH4+] [compound 24, Ammonium diethylenetriaminepentaacetatoferrate]",Dry weight of shoots,[8],1.9 g
same,Plant height (cm),[8],10.1 cm
